Measured values: patent EP4227307A1 (Genzyme Corporation, priority 2022, dated 2023)
Where a name gives a salt, the structure may show the parent alone.

target: T1, human recombinant 6His-Nterm SHP2 full-length (Thr2-Arg593) (Homo sapiens, UniProt Q06124); assay: SHP2 Phosphatase Assay (DiFMUP fluorescence); type: biochemical; conditions: SHP2 0.2 nM pre-incubated with 100 nM bi-phosphorylated activating peptide; compound 1000-0.05 nM, 30 min pre-incubation; DiFMUP 20 µM, 45 min, room temperature; 10-concentration dose-response
T1 construct: 6His-Nterm SHP2 full-length (Thr2-Arg593, R&D system); 6His (N); purchased R&D system
T1 sequence (Q06124 2-593): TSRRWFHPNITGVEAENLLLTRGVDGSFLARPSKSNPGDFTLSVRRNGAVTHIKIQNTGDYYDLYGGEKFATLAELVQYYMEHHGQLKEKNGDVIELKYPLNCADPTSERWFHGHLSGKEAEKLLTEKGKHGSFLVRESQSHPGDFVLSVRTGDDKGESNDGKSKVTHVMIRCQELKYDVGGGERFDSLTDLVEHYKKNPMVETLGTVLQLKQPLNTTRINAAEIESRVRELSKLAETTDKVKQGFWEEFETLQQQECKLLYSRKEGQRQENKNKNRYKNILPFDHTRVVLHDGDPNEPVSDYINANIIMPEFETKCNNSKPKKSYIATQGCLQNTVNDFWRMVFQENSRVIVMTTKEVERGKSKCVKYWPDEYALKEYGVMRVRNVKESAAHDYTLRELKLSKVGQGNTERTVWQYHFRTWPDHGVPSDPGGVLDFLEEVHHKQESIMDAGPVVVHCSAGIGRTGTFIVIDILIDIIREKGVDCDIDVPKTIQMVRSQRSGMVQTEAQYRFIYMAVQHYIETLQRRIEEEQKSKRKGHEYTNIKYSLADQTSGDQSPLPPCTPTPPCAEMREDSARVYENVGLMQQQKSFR
Summary of the method: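 SHP2 (0.2 nM) preactivated ≥10 min with 100 nM bis-phosphorylated peptide, then 30 min with compound (10 concentrations, 1000–0.05 nM) at room temperature, pH 7.2 HEPES buffer with DTT. DiFMUP (20 µM, added solution) reacted 45 min, pervanadate-stopped; fluorescence 350/450 nm. IC50 by 4-parameter logistic fit.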

IC50 [nM]	SMILES
8	Cc1nccc(Sc2c(C)nc(N3CCC4(CC3)Cc3ncccc3[C@H]4N)c3ccnn23)c1Cl [Compound 231, (S)-1'-(7-((3-chloro-2-methylpyridin-4-yl)thio)-6-methylpyrazolo[1,5-a]pyrazin-4-yl)-5,7-dihydrospiro[cyclopenta[b]pyridine-6,4'-piperidin]-5-amine]
7	Cc1cc2c(cn1)[C@@H](N)C1(CCN(c3nc(C)c(-c4ccccc4F)n4nccc34)CC1)C2 [Compound 60, (7S)-1'-[7-(2-fluorophenyl)-6-methyl-pyrazolo[1,5-a]pyrazin-4-yl]-3-methyl-spiro[5,7-dihydrocyclopenta[c]pyridine-6,4'-piperidine]-7-amine]
685	COc1ccc2c(n1)[C@H](N)C1(CCN(c3nc(C)c(-c4cccc(F)c4Cl)n4nccc34)CC1)C2 [Compound 216, (7R)-1'-[7-(2-chloro-3-fluoro-phenyl)-6-methyl-pyrazolo[1,5-a]pyrazin-4-yl]-2-methoxy-spiro[5,7-dihydrocyclopenta[b]pyridine-6,4'-piperidine]-7-amine]
8	Cc1cc2c(cn1)CC1(CCN(c3nc(C)c(-c4ccnc(C)c4F)n4nccc34)CC1)[C@@H]2N [Compound 116, (5S)-1'-[7-(3-fluoro-2-methyl-4-pyridyl)-6-methyl-pyrazolo[1,5-a]pyrazin-4-yl]-3-methyl-spiro[5,7-dihydrocyclopenta[c]pyridine-6,4'-piperidine]-5-amine]
> 1000	Cc1nn(C)c(C)c1-c1c(C)nc(N2CCC3(CC2)Cc2ncccc2[C@H]3N)c2ccnn12 [Compound 33, (5S)-1'-[6-methyl-7-(1,3,5-trimethylpyrazol-4-yl)pyrazolo[1,5-a]pyrazin-4-yl]spiro[5,7-dihydrocyclopenta[b]pyridine-6,4'-piperidine]-5-amine]
17	Cc1nc(N2CCC3(CC2)Cc2ccccc2[C@H]3N)c2ccnn2c1-c1cnn(C)c1C [Compound 149, (1S)-1'-[7-(1,5-dimethylpyrazol-4-yl)-6-methyl-pyrazolo[1,5-a]pyrazin-4-yl]spiro[indane-2,4'-piperidine]-1-amine]

Continued, compound first:

SMILES	IC50 [nM]
Cc1nc(N2CCC3(CC2)Cc2nc(CO)ccc2[C@H]3N)c2ccnn2c1-c1ccccc1 [Compound 223, [(5S)-5-amino-1'-(6-methyl-7-phenyl-pyrazolo[1,5-a]pyrazin-4-yl)spiro[5,7-dihydrocyclopenta[b]pyridine-6,4'-piperidine]-2-yl]methanol]	13
[2H]c1c([2H])c([2H])c(-c2c(C)nc(N3CCC4(CC3)Cc3ncccc3[C@H]4N)c3ccnn23)c([2H])c1[2H] [Compound 57, (5S)-1'-[6-methyl-7-(2,3,4,5,6-pentadeuteriophenyl)pyrazolo [1,5-a]pyrazin-4-yl]spiro[5,7-dihydrocyclopenta[b]pyridine-6,4'-piperidine]-5-amine]	10
Cc1nc(N2CCC3(CC2)Oc2ncccc2[C@H]3N)c2ccnn2c1-c1cccc(F)c1C(F)(F)F [Compound 129, (3R)-1'-[7-[3-fluoro-2-(trifluoromethyl)phenyl]-6-methyl-pyrazolo[1,5-a]pyrazin-4-yl]spiro[3H-furo[2,3-b]pyridine-2,4'-piperidine]-3-amine]	> 1000
Cc1nc(N2CCC3(CC2)Cc2c(F)cc(F)cc2[C@H]3N)c2ccnn2c1-c1cnn(C)c1C [Compound 102, (1S)-1'-[7-(1,5-dimethylpyrazol-4-yl)-6-methyl-pyrazolo[1,5-a]pyrazin-4-yl]-4,6-difluoro-spiro[indane-2,4'-piperidine]-1-amine hydrochloride]	17
Cc1nc(N2CCC3(CC2)Cc2scnc2[C@H]3N)c2ccnn2c1-c1ccccc1 [Compound 68, (4S)-1'-(6-methyl-7-phenyl-pyrazolo[1,5-a]pyrazin-4-yl)spiro[4,6-dihydrocyclopenta[d]thiazole-5,4'-piperidine]-4-amine hydrochloride]	18
Cc1nc(N2CCC3(CC2)Cc2ncccc2[C@H]3N)c2ccnn2c1C1=CCOCC1 [Compound 196, (5S)-1'-[7-(3,6-dihydro-2H-pyran-4-yl)-6-methyl-pyrazolo[1,5-a]pyrazin-4-yl]spiro[5,7-dihydrocyclopenta[b]pyridine-6,4'-piperidine]-5-amine]	83
COc1cccc(-c2c(C)nc(N3CCC4(CC3)Cc3ncccc3[C@H]4N)c3ccnn23)c1 [Compound 32, (5S)-1'-[7-(3-methoxyphenyl)-6-methyl-pyrazolo[1,5-a]pyrazin-4-yl]spiro[5,7-dihydrocyclopenta[b]pyridine-6,4'-piperidine]-5-amine]	6
COc1cc(-c2c(C)nc(N3CCC4(CC3)Cc3ncccc3[C@H]4N)c3ccnn23)c(F)cn1 [Compound 76, (5S)-1'-[7-(5-fluoro-2-methoxy-4-pyridyl)-6-methyl-pyrazolo [1,5-a]pyrazin-4-yl]spiro[5,7-dihydrocyclopenta[b]pyridine-6,4'-piperidine] -5-amine hydrochloride]	72
Cc1nc(N2CCC3(CC2)Cc2ncccc2[C@H]3N)c2ccnn2c1-c1ccc2scnc2c1 [Compound 170, (5S)-1'-[7-(1,3-benzothiazol-5-yl)-6-methyl-pyrazolo[1,5-a]pyrazin-4-yl]spiro[5,7-dihydrocyclopenta[b]pyridine-6,4'-piperidine]-5-amine]	11
COc1ccc2c(c1)[C@@H](N)C1(CCN(c3nc(C)c(-c4ccncc4Cl)n4nccc34)CC1)C2 [Compound 119, hydrochloride]	4
Cc1nc2c(s1)CC1(CCN(c3nc(C)c(-c4ccccc4F)n4nccc34)CC1)[C@@H]2N [Compound 104, (4S)-1'-[7-(2-fluorophenyl)-6-methyl-pyrazolo[1,5-a]pyrazin-4-yl]-2-methyl-spiro[4,6-dihydrocyclopenta[d]thiazole-5,4'-piperidine]-4-amine hydrochloride]	9
COc1c(F)cccc1-c1c(C)nc(N2CCC3(CC2)Cc2ncccc2[C@H]3N)c2ccnn12 [Compound 200]	44
Cc1nc(N2CCC3(CC2)Cc2ncccc2[C@H]3N)c2ccnn2c1-c1ccc2c(c1)CCN2C [Compound 171, (5S)-1'-[6-methyl-7-(1-methylindolin-5-yl)pyrazolo[1,5-a]pyrazin-4-yl]spiro[5,7-dihydrocyclopenta[b]pyridine-6,4'-piperidine]-5-amine]	20
Cc1nc(N2CCC3(CC2)Oc2ccccc2[C@H]3N)c2ccnn2c1-c1cccc(F)c1Cl [Compound 20, (3R)-1'-[7-(2-chloro-3-fluorophenyl)-6-methyl-pyrazolo[1,5-a]pyrazin-4-yl]spiro[3H-benzofuran-2,4'-piperidine]-3-amine]	115
CCn1ncc(-c2c(C)nc(N3CCC4(CC3)Cc3ccc(OC)cc3[C@H]4N)c3ccnn23)c1C [Compound 125, (1S)-1'-[7-(1-ethyl-5-methyl-pyrazol-4-yl)-6-methyl-pyrazolo[1,5-a]pyrazin-4-yl]-6-methoxy-spiro [indane-2,4'-piperidine]-1-amine hydrochloride]	9
